Measurements published in patent US3965111A, “Triazolothienodiazepine compounds” (Yoshitomi Pharmaceutical Industries, Ltd., priority 1971, dated 1976).

How the values were obtained:
Format in all cases: in vivo
[1] = tested on: fighting episodes in mice; assay: Suppression of fighting behavior (electric foot-shock induced fighting); details: Mus musculus; female mice, oral, 60 min before foot-shock for 3 min; dose to suppress 50% of fighting pairs
Experimental: I. suppression of Fighting Behavior
Fighting episodes were produced in mice by the method described by Tedeschi et al in Journal of Pharmacology and Experimental Therapeutics, Vol. 125, pp. 28 ff. (1959). Groups of 8 female mice (4 pairs) were given orally, the test compound 60 minutes prior to receiving electric foot-shock for 3 minutes with 530 volts of interrupted direct current, 1.3 milliamperes, 10 Hz. […] The control mice of 81 pairs had shown the fighting episodes of 8.7 times on the average under the same conditions. The ED50, a dose required to suppress 50% of fighting pairs was determined graphically.

[2] = Anti-pentylenetetrazole effect (prevention of death); details: Mus musculus, ip; mice, intraperitoneal, 15 min before pentylenetetrazole 150 mg/kg s.c.; dead mice counted at 3 hours; read-out: Antipentylenetetrazole Effect ED50
Experimental: Ii. anti-pentylenetetrazole Effect
Pentylenetetrazole (150 mg/kg) was administered subcutaneously to groups, each of 6 mice, 15 minutes after intraperitoneal administration of the test compound. The number of dead mice were counted 3 hours after the administration of pentylenetetrazole, and then the ED50, a dose required to reduce the number of dead mice to 50%, was determined graphically.

[3] = Anti-megimide effect (prevention of tonic extensor convulsion); details: Mus musculus, ip; mice, intraperitoneal, 60 min before megimide 80 mg/kg s.c.; tonic extensor convulsion prevented for 3 hours in 50%; read-out: Antimegimide Effect ED50
Experimental: Iii. anti-megimide Effect
Megimide (80 mg/kg) was administered subcutaneously to groups, each of 6 mice, 60 minutes after intra-peritoneal administration of the test compound. The ED50, a dose required to prevent for 3 hours, the tonic extensor convulsion induced by the administration of megimide in 50% of the animals, was determined graphically.

Structure (SMILES)	ED50 [1]	ED50 [2]	ED50 [3]
Cc1cc2c(s1)-n1c(nn(C)c1=O)CN=C2c1ccccc1Cl [A, 2,8-Dimethyl-6-o-chlorophenyl-1,2-dihydro-4H-s-triazolo [3,4-c]-thieno[2,3-e][1,4]diazepin-1-one]	4.8 mg/kg	0.9 mg/kg	1.3 mg/kg
CCc1cc2c(s1)-n1c(nn(C)c1=O)CN=C2c1ccccc1Cl [B, 2-Methyl-6-o-chlorophenyl-8-ethyl-1,2-dihydro-4H-s-triazolo[3,4-c]-thieno[2,3-e][1,4]diazepin-1-one]	0.8 mg/kg	1.4 mg/kg	5.7 mg/kg
CCc1cc2c(s1)-n1c(n[nH]c1=O)CN=C2c1ccccc1Br [C, 6-o-Bromophenyl-8-ethyl-1,2-dihydro-4H-s-triazolo[3,4-c]-thieno[2,3-e]-[1,4]diazepin-1-one]	2.7 mg/kg	2.6 mg/kg	7.2 mg/kg
